In ChEMBL document CHEMBL5365473, “Novel Sulfonylurea-Based NLRP3 Inflammasome Inhibitor for Efficient Treatment of Nonalcoholic Steatohepatitis, Endotoxic Shock, and Colitis” (J Med Chem, 2023):
Calls of active or inactive are those of the source. The calls are words filed in the database; no cut-off is given here.

Assays:
[1] = target: NACHT, LRR and PYD domains-containing protein 3 (Mus musculus, UniProt Q8R4B8); assay: Inhibition of NLRP3 inflammasome in mouse […] cells assessed as inhibition of LPS/ATP-induced IL-1 beta secretion primed with LPS for 4.5 hs followed by incubation with compound for 30 mins and later stimulation with ATP for 30 mins by ELISA; type: cell-based, J774.A1
[2] = Effect on immune cell numbers in MCS diet-fed C57BL/6 mouse assessed as effect on CD45 expression at 40 mg/kg, po administered via gavage for 5 weeks by immunofluorescence staining based analysis; type: toxicity, organism-based; settings: in vivo, 840 h
[3] = Effect on immune cell numbers in MCS diet-fed C57BL/6 mouse assessed as effect on F4/80 expression at 40 mg/kg, po administered via gavage for 5 weeks by immunofluorescence staining based analysis; type: toxicity, organism-based; settings: in vivo, 840 h
Mus musculus [4] = assay: Antiinflammatory activity against MCD diet-induced NASH C57BL/6 mouse model assessed as reduction in liver fibrosis at 40 mg/kg, po administered via gavage for 5 weeks by Masson's trichrome staining based analysis; type: functional, organism-based
Mus musculus [5] = assay: Antiinflammatory activity against MCD diet-induced NASH C57BL/6 mouse model assessed as reduction in balloon dilatation in liver at 40 mg/kg, po administered via gavage for 5 weeks by Masson's trichrome staining based analysis; type: functional, organism-based
Mus musculus [6] = assay: Antiinflammatory activity against MCD diet-induced NASH C57BL/6 mouse model assessed as reduction in liver steatosis at 40 mg/kg, po administered via gavage for 5 weeks by Masson's trichrome staining based analysis; type: functional, organism-based
Mus musculus [7] = assay: Antiinflammatory activity against MCD diet-induced NASH C57BL/6 mouse model assessed as improvement in liver morphology at 40 mg/kg, po administered via gavage for 5 weeks by Masson's trichrome staining based analysis; type: functional, organism-based
Mus musculus [8] = assay: Antiinflammatory activity against MCD diet-induced NASH C57BL/6 mouse model assessed as reduction in liver fibrosis at 40 mg/kg, po administered via gavage for 5 weeks by Sirius red staining based analysis; type: functional, organism-based
Mus musculus [9] = assay: Antiinflammatory activity against MCD diet-induced NASH C57BL/6 mouse model assessed as reduction in balloon dilatation in liver at 40 mg/kg, po administered via gavage for 5 weeks by Sirius red staining based analysis; type: functional, organism-based
Mus musculus [10] = assay: Antiinflammatory activity against MCD diet-induced NASH C57BL/6 mouse model assessed as reduction in liver steatosis at 40 mg/kg, po administered via gavage for 5 weeks by Sirius red staining based analysis; type: functional, organism-based
Mus musculus [11] = assay: Antiinflammatory activity against DSS-induced ulcerative colitis C57BL/6 mouse assessed as reduction in inflammatory cells infiltration in lamina propria in colon at 10 mg/kg, ip administered for 9 days and measured on day 10 by H and E staining based analysis; type: functional, organism-based; settings: time 10.0 day
L02 = assay: Cytotoxicity against human HL7702 cells assessed as reduction in cell viability at 200 uM measured after 24 hrs by CCK8 assay; type: toxicity, cell-based; settings: l02, 24 h
Hepatocyte = assay: Cytotoxicity against mouse primary hepatic cells assessed as reduction in cell viability at 200 uM measured after 24 hrs by CCK8 assay; type: toxicity, cell-based; settings: hepatocytes
[12] = Half life in C57BL/6 mouse at 20 mg/kg, po by LC-MS/MS analysis; type: ADME, organism-based; settings: in vivo
[13] = Oral bioavailability in C57BL/6 mouse at 20 mg/kg by LC-MS/MS analysis; type: ADME, organism-based; settings: in vivo
Mus musculus [14] = assay: Antiinflammatory activity against MCD diet-induced NASH C57BL/6 mouse model assessed as protection against MCD diet-induced increase in liver to body weight ratio at 40 mg/kg, po administered via gavage for 5 weeks; type: functional, organism-based
Mus musculus [15] = assay: Antiinflammatory activity against MCD diet-induced NASH C57BL/6 mouse model assessed as improvement in liver morphology at 40 mg/kg, po administered via gavage for 5 weeks by H and E staining based analysis; type: functional, organism-based
Mus musculus [16] = assay: Antiinflammatory activity against MCD diet-induced NASH C57BL/6 mouse model assessed as reduction in liver steatosis at 40 mg/kg, po administered via gavage for 5 weeks by H and E staining based analysis; type: functional, organism-based
Mus musculus [17] = assay: Antiinflammatory activity against MCD diet-induced NASH C57BL/6 mouse model assessed as reduction in balloon dilatation in liver at 40 mg/kg, po administered via gavage for 5 weeks by H and E staining based analysis; type: functional, organism-based
Mus musculus [18] = assay: Antiinflammatory activity against MCD diet-induced NASH C57BL/6 mouse model assessed as reduction in liver fibrosis at 40 mg/kg, po administered via gavage for 5 weeks by H and E staining based analysis; type: functional, organism-based
Mus musculus [19] = assay: Antiinflammatory activity against MCD diet-induced NASH C57BL/6 mouse model assessed as improvement in liver morphology at 40 mg/kg, po administered via gavage for 5 weeks by Sirius red staining based analysis; type: functional, organism-based
Mus musculus [20] = assay: Antiinflammatory activity against MCD diet-induced NASH C57BL/6 mouse model assessed as reduction in TUNEL-positive hepatic cells at 40 mg/kg, po administered via gavage for 5 weeks by TUNEL assay; type: functional, organism-based
Mus musculus [21] = assay: Antiinflammatory activity against MCD diet-induced NASH C57BL/6 mouse model assessed as reduction in immune cell infiltration by measuring reduction in F4/80-positive hepatic cells at 40 mg/kg, po administered via gavage for 5 weeks by immunofluorescence staining based analysis; type: functional, organism-based
Mus musculus [22] = assay: Antiinflammatory activity against MCD diet-induced NASH C57BL/6 mouse model assessed as reduction in immune cell infiltration by measuring reduction in CD45-positive hepatic cells at 40 mg/kg, po administered via gavage for 5 weeks by immunofluorescence staining based analysis; type: functional, organism-based
Mus musculus [23] = assay: Antiinflammatory activity against LPS-induced lethal septic shock C57BL/6 mouse model assessed as increase in animal's survival rate at 40 mg/kg, ip administered for 1 hr prior to LPS challenge and measured for 72 hrs; type: functional; settings: time 73 hrs
Mus musculus [24] = assay: Antiinflammatory activity against LPS-induced lethal septic shock C57BL/6 mouse model assessed as increase in animal's survival rate at 20 mg/kg, ip administered for 1 hr prior to LPS challenge and measured for 72 hrs; type: functional; settings: time 73 hrs
Mus musculus [25] = assay: Antiinflammatory activity against LPS-induced lethal septic shock C57BL/6 mouse model assessed as reduction in serum IL-1 beta level at 20 to 40 mg/kg, ip administered for 1 hr prior to LPS challenge and measured after 2.5 hrs by ELISA; type: functional, organism-based; settings: dose 20-40 mg/kg, time 3.5 hrs
Mus musculus [26] = assay: Antiinflammatory activity against LPS-induced lethal septic shock C57BL/6 mouse model assessed as effect on TNF-alpha level at 40 mg/kg, ip administered for 1 hr prior to LPS challenge and measured after 2.5 hrs by ELISA; type: functional, organism-based; settings: time 3.5 hrs
Mus musculus [27] = assay: Antiinflammatory activity against DSS-induced ulcerative colitis C57BL/6 mouse assessed as reduction in body weight loss at 10 mg/kg, ip administered for 9 days and measured daily; type: functional, organism-based; settings: time 9.0 day
Mus musculus [28] = assay: Antiinflammatory activity against DSS-induced ulcerative colitis C57BL/6 mouse assessed as reduction in colon length shortening at 10 mg/kg, ip administered for 9 days and measured on day 10; type: functional, organism-based; settings: time 10.0 day
Mus musculus [29] = assay: Antiinflammatory activity against DSS-induced ulcerative colitis C57BL/6 mouse assessed as reduction in mucosal barrier disruption in colon at 10 mg/kg, ip administered for 9 days and measured on day 10 by H and E staining based analysis; type: functional, organism-based; settings: time 10.0 day
Mus musculus [30] = assay: Antiinflammatory activity against DSS-induced ulcerative colitis C57BL/6 mouse assessed as reduction in crypt necrosis in colon at 10 mg/kg, ip administered for 9 days and measured on day 10 by H and E staining based analysis; type: functional, organism-based; settings: time 10.0 day
Mus musculus [31] = assay: Antiinflammatory activity against DSS-induced ulcerative colitis C57BL/6 mouse assessed as reduction in massive loss of goblet cells in colon at 10 mg/kg, ip administered for 9 days and measured on day 10 by H and E staining based analysis; type: functional, organism-based; settings: time 10.0 day
[32] = target: NACHT, LRR and PYD domains-containing protein 3 (Mus musculus) (UniProt Q8R4B8); settings: J774.A1, dose 30.0 nM, time 3.0 hrs
[33] = target: NACHT, LRR and PYD domains-containing protein 3 (Mus musculus) (UniProt Q8R4B8); settings: J774.A1, dose 30.0 nM, time 3.0 hrs; remark: listed apart in the source

Chain of NACHT, LRR and PYD domains-containing protein 3 (Q8R4B8 whole entry, the tested form may be a part): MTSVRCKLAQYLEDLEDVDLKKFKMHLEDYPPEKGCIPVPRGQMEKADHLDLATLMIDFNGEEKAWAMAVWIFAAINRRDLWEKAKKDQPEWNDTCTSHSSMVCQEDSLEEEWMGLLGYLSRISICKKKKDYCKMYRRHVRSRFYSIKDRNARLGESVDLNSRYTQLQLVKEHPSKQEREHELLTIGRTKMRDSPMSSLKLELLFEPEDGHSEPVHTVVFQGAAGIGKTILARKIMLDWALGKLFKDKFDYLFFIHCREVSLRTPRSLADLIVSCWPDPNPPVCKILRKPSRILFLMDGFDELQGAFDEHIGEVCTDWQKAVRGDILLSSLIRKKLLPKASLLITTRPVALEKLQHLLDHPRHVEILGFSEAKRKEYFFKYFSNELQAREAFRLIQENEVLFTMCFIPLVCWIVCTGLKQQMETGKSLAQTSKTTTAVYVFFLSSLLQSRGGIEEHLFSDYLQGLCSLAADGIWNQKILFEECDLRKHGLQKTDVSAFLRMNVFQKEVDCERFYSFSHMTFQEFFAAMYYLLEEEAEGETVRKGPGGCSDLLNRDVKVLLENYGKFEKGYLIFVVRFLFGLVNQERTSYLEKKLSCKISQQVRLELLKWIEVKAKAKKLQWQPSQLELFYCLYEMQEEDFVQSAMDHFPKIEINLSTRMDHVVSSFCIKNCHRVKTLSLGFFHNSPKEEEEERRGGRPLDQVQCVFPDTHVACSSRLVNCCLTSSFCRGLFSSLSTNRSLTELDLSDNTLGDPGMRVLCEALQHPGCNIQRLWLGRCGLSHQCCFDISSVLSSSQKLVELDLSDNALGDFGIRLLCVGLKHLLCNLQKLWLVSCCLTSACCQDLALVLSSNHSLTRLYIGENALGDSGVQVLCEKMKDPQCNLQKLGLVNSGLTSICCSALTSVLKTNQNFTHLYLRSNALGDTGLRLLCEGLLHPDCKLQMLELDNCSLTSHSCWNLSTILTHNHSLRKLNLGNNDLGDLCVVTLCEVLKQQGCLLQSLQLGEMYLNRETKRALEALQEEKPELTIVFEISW
Chain of NACHT, LRR and PYD domains-containing protein 3 (Mus musculus) (Q8R4B8 whole entry, the tested form may be a part): as above

With `CC(C)(C)OC(=O)N1CC=C(c2c3c(c(NC(=O)NS(=O)(=O)c4cc(C(C)(C)O)co4)c4c2CCC4)CCC3)CC1` the IC50 [1] was greater than 5 µM.
With `CC(C)(O)c1cccc(S(=O)(=O)NC(=O)Nc2c3c(cc4c2CCC4)CCC3)c1` the IC50 [1] was greater than 20 µM.
`CC(C)(O)c1coc(S(=O)(=O)NC(=O)Nc2c3c(c(-c4ccc(C=O)cc4)c4c2CCC4)CCC3)c1` showed an IC50 [1] greater than 5 µM.
`CN(C)Cc1cc(S(=O)(=O)NC(=O)Nc2c3c(cc4c2CCC4)CCC3)ccn1` showed an IC50 [1] of 1.68 µM.
For `Cc1cc(C)cc(NC(=O)NS(=O)(=O)c2ccc(CN(C)C)cc2)c1`, the IC50 [1] was greater than 10 µM.
Compound `CCCCN(C)Cc1ccc(S(=O)(=O)NC(=O)Nc2c3c(cc4c2CCC4)CCC3)cc1` has an IC50 [1] greater than 10 µM.
`CC(C)(C)OC(=O)N1C=C(c2c3c(c(NC(=O)NS(=O)(=O)c4cc(C(C)(C)O)co4)c4c2CCC4)CCC3)CCC1` showed an IC50 [1] greater than 5 µM.
Compound `CN(C)Cc1cc(F)cc(S(=O)(=O)NC(=O)Nc2c3c(cc4c2CCC4)CCC3)c1` has an IC50 [1] of 0.722 µM.
`CC(C)c1cccc(C(C)C)c1CC(=O)NS(=O)(=O)c1ccc(CN(C)C)cc1` gave an IC50 [1] of 1.86 µM.
In the case of `CC(C)(O)c1coc(S(=O)(=O)NC(=O)Nc2c3c(cc4c2CCC4)CCC3)c1`, the Activity [2] is reported as “Non-Toxic”, the Activity [3] is reported as “Non-Toxic” and the Activity (Mus musculus [4]) is reported as “Active”. For the same compound, the Activity (Mus musculus [5]) was “Active”, the Activity (Mus musculus [6]) was “Active” and the Activity (Mus musculus [7]) was “Active”. For the same compound, the Activity (Mus musculus [8]) was “Active”, the Activity (Mus musculus [9]) was “Active” and the Activity (Mus musculus [10]) was “Active”. For the same compound, the Activity (Mus musculus [11]) was “Active”, the IC50 [1] was 0.014 µM and the Activity (L02) was “Toxic”. The Activity (Hepatocyte) was “Toxic”, the half-life [12] was 1.32 h and the bioavailability [13] was 85.2%. The Activity (Mus musculus [14]) was “Active”, the Activity (Mus musculus [15]) was “Active” and the Activity (Mus musculus [16]) was “Active”. For the same compound, the Activity (Mus musculus [17]) was “Active”, the Activity (Mus musculus [18]) was “Active” and the Activity (Mus musculus [19]) was “Active”. For the same compound, the Activity (Mus musculus [20]) was “Active”, the Activity (Mus musculus [21]) was “inactive” and the Activity (Mus musculus [22]) was “inactive”. The survival at 40 mg/kg (Mus musculus [23]) was 60%, the survival at 20 mg/kg (Mus musculus [24]) was 20% and the Activity (Mus musculus [25]) was “Active”. For the same compound, the Activity (Mus musculus [26]) was “inactive”, the Activity (Mus musculus [27]) was “Active” and the Activity (Mus musculus [28]) was “Active”. For the same compound, the Activity (Mus musculus [29]) was “Active”, the Activity (Mus musculus [30]) was “Active” and the Activity (Mus musculus [31]) was “Active”. The inhibition [32] was “Active” and the inhibition [33] was “Active”.
Compound `CC(=O)c1cccc(S(=O)(=O)NC(=O)Nc2c3c(cc4c2CCC4)CCC3)c1` has an IC50 [1] greater than 20 µM.
`CCCN(C)Cc1ccc(S(=O)(=O)NC(=O)Nc2c3c(cc4c2CCC4)CCC3)cc1` showed an IC50 [1] greater than 10 µM.
With `COC(=O)c1ccc(-c2c3c(c(NC(=O)NS(=O)(=O)c4cc(C(C)(C)O)co4)c4c2CCC4)CCC3)cc1` the IC50 [1] was 1.12 µM.
For `CC(C)(O)c1cc(Br)cc(S(=O)(=O)NC(=O)Nc2c3c(cc4c2CCC4)CCC3)c1`, the IC50 [1] was greater than 20 µM.
Compound `CC(C)(O)c1coc(S(=O)(=O)NC(=O)Nc2c3c(c(-c4cccc(C#N)c4)c4c2CCC4)CCC3)c1` has an IC50 [1] greater than 5 µM.
